Results from publication PMC6915728 (Nature Communications, 2019).

Columns and labels:
E. coli BW25113 ΔmlaD = assay: MIC, serial broth dilution, mlaD knockout strain vs wild type; format: cell-based, Escherichia coli
Protocol: What could be the mechanism behind the antagonistic action of this pathway on membrane- versus intracellular-targeting AMPs? Since MlaD is part of a protein complex, it may lead to a loss-of-function effect upon overexpression[41],[42]. To test this, we asked whether overexpression and deletion of mlaD cause similar changes in susceptibility to a representative set of membrane- and intracellular-targeting AMPs.
Minimum inhibitory concentrations (MIC) were determined with a standard serial broth dilution technique with a minor modification. Specifically, instead of a two-fold dilution series, smaller AMP concentration steps were used (typically 1.2-fold) for two reasons. […] Second, gene overexpressions caused typically only small changes in the MICs of AMPs and therefore higher resolution was required. The protocol was as follows. From a stock solution of an AMP, 12-steps serial dilution was prepared in fresh MS medium in 96-well microtiter plates. Each AMP was represented in 11 different concentrations (3 wells per AMP concentration per strain). Three wells contained only medium to check the growth in the absence of AMP. After overnight growth in MS medium supplemented with chloramphenicol, bacterial strains were diluted 20-fold into fresh MS medium and grown until the cell density reached OD600 ~1. Cells were induced by 100 µM of IPTG and incubated for 1 h at 30 °C with continuous shaking at 300 rpm. Following incubation, approximately half-million cells were inoculated into the wells of the 96-well microtiter plate with a 96‐pin replicator. We used three independent replicates for each strain and the corresponding control. Two rows in the 96-well plate contained only MS medium in order to obtain the background OD value of the medium. Plates were incubated at 30 °C with continuous shaking at 300 rpm. After 20–24 h of incubation, OD600 values were measured in a microplate reader (Biotek Synergy 2).
A mlaD knockout strain of E. coli BW25113 carrying a kanamycin resistance cassette in the position of the gene was selected from the KEIO collection. The resistance marker was removed using plasmid-borne (pFT-A) expression of FLP recombinase leading to excision of the kanamycin resistance cassette. Cassette excision was verified by a polymerase chain reaction using the primers mlaD_del_ver_Fw (5′- […]) and mlaD_del_ver_Rev (5′- […]).
Supplementary Figure 13. […] The bacterial susceptibility of the mutant to AMPs was tested by MIC determination. Growth is shown relative to growth in the absence of the corresponding AMP. The blue line represents the mlaD knockout strain and the orange line represents the control strain (wild-type E. coli BW25113). Error bars indicate the standard errors based on three biological replicates. Source data are provided in the Source Data file.

[1] = tested on: AMP-evolved E. coli lines; assay: Cross-resistance / collateral sensitivity: relative MIC change of 38 laboratory-evolved AMP-resistant lines vs parental strain; format: cell-based, Escherichia coli; settings: measured here
Source text: Here, we extended this dataset by measuring susceptibility changes of the same evolved lines to four additional AMPs using identical protocols to represent AMPs from all four clusters (Supplementary Fig. 15a, see also Methods). Overall, the resulting dataset of susceptibility profiles provides a comprehensive map of cross-resistance and collateral sensitivity between AMPs representing various modes of action.
To characterize the cross-resistance of the 38 E. coli lineages we obtained relative MIC changes that are, the MIC values of the evolved lines compared to these of the parental strain, from two data sources. First, we used already measured relative MIC changes from Spohn et al. Supplementary data 4[20]. […] Second, we extended this dataset by measuring the relative MIC changes of the same evolved lines to four additional AMPs using identical protocol. […] In this way, AMPs from each cluster were represented in the dataset.
Supplementary Figure 15. […] Relative change in MIC was determined for each evolved line by comparing its MIC to the ancestral cell line (control). […] CAP18-adaped lines were not included in the analysis because CAP18 is known as a membrane-targeting AMP in the literature. c, Cross-resistance interactions are enriched between membrane-targeting AMPs that are in the same chemical-genetic clusters (i.e. AMP pairs within C1 and within C2 clusters) (Significant difference: ** P = 0.0082 from two-sided Fisher’s exact test, n = 61 and 62 for within cluster and between clusters, respectively). […] Source data are provided as a Source Data file.

[2] = mlaD deletion strain relative to control (E. coli BW25113), 3 replicates each, from optical density values of serial dilution plates, AMP in µg ml-1

Row | Sequence | Average relative change in MIC (E. coli BW25113 ΔmlaD; [2]) | Relative change in MIC (MIC of the AMP-adpated line / MIC of the ancestral strain) ([1]; AMP-adapted line CAP18_2) | Relative change in MIC (MIC of the AMP-adpated line / MIC of the ancestral strain) ([1]; AMP-adapted line CAP18_5) | Relative change in MIC (MIC of the AMP-adpated line / MIC of the ancestral strain) ([1]; AMP-adapted line CAP18_6) | Relative change in MIC (MIC of the AMP-adpated line / MIC of the ancestral strain) ([1]; AMP-adapted line CAP18_8) | Relative change in MIC (MIC of the AMP-adpated line / MIC of the ancestral strain) ([1]; AMP-adapted line CAP18_10) | Relative change in MIC (MIC of the AMP-adpated line / MIC of the ancestral strain) ([1]; AMP-adapted line HBD3_3) | Relative change in MIC (MIC of the AMP-adpated line / MIC of the ancestral strain) ([1]; AMP-adapted line HBD3_6) | Relative change in MIC (MIC of the AMP-adpated line / MIC of the ancestral strain) ([1]; AMP-adapted line HBD3_8) | Relative change in MIC (MIC of the AMP-adpated line / MIC of the ancestral strain) ([1]; AMP-adapted line HBD3_10) | Relative change in MIC (MIC of the AMP-adpated line / MIC of the ancestral strain) ([1]; AMP-adapted line LL37_1) | Relative change in MIC (MIC of the AMP-adpated line / MIC of the ancestral strain) ([1]; AMP-adapted line LL37_3) | Relative change in MIC (MIC of the AMP-adpated line / MIC of the ancestral strain) ([1]; AMP-adapted line LL37_6) | Relative change in MIC (MIC of the AMP-adpated line / MIC of the ancestral strain) ([1]; AMP-adapted line LL37_7) | Relative change in MIC (MIC of the AMP-adpated line / MIC of the ancestral strain) ([1]; AMP-adapted line LL37_10) | Relative change in MIC (MIC of the AMP-adpated line / MIC of the ancestral strain) ([1]; AMP-adapted line PR39_1) | Relative change in MIC (MIC of the AMP-adpated line / MIC of the ancestral strain) ([1]; AMP-adapted line PR39_2) | Relative change in MIC (MIC of the AMP-adpated line / MIC of the ancestral strain) ([1]; AMP-adapted line PR39_5) | Relative change in MIC (MIC of the AMP-adpated line / MIC of the ancestral strain) ([1]; AMP-adapted line PR39_7) | Relative change in MIC (MIC of the AMP-adpated line / MIC of the ancestral strain) ([1]; AMP-adapted line PR39_10) | other results
1 | RWCFRVCYRGICYRKCR [TPII, Tachyplesin II, antimicrobial peptide from Japanese horseshoe crab; disrupts cell membrane; cluster C1] | 1.35 | – | – | – | – | – | – | – | – | – | – | – | – | – | – | – | – | – | – | – | –
2 | GIGKFLKKAKKFGKAFVKILKK [PEX, Pexiganan, synthetic Magainin derivative; disrupts cell membrane; cluster C2] | 1.58 | 3.036 | >3.6 | 1.964 | 2.986 | 2.488 | 3.648 | 2.089 | 3.578 | 2.72 | 1.584 | 1.32 | 1.22 | 2.986 | 2.093 | 1.464 | 1.1 | 1.1 | 1.1 | 1 | Relative change in MIC (MIC of the AMP-adpated line / MIC of the ancestral strain) ([1]; AMP-adapted line BAC5_3): 1; Relative change in MIC (MIC of the AMP-adpated line / MIC of the ancestral strain) ([1]; AMP-adapted line BAC5_5): 1; Relative change in MIC (MIC of the AMP-adpated line / MIC of the ancestral strain) ([1]; AMP-adapted line BAC5_7): 1.1; Relative change in MIC (MIC of the AMP-adpated line / MIC of the ancestral strain) ([1]; AMP-adapted line BAC5_10): 1.1; Relative change in MIC (MIC of the AMP-adpated line / MIC of the ancestral strain) ([1]; AMP-adapted line PROA_2): 1.1; Relative change in MIC (MIC of the AMP-adpated line / MIC of the ancestral strain) ([1]; AMP-adapted line PROA_3): 1.1; Relative change in MIC (MIC of the AMP-adpated line / MIC of the ancestral strain) ([1]; AMP-adapted line PROA_7): 0.915; Relative change in MIC (MIC of the AMP-adpated line / MIC of the ancestral strain) ([1]; AMP-adapted line PROA_8): 1.2; Relative change in MIC (MIC of the AMP-adpated line / MIC of the ancestral strain) ([1]; AMP-adapted line PROA_9): 1; Relative change in MIC (MIC of the AMP-adpated line / MIC of the ancestral strain) ([1]; AMP-adapted line PXB_2): 1.32; Relative change in MIC (MIC of the AMP-adpated line / MIC of the ancestral strain) ([1]; AMP-adapted line PXB_5): 1.844; Relative change in MIC (MIC of the AMP-adpated line / MIC of the ancestral strain) ([1]; AMP-adapted line PXB_6): 1.6368; Relative change in MIC (MIC of the AMP-adpated line / MIC of the ancestral strain) ([1]; AMP-adapted line PXB_8): 1.844; Relative change in MIC (MIC of the AMP-adpated line / MIC of the ancestral strain) ([1]; AMP-adapted line PXB_10): >3.6
3 | RFRPPIRRPPIRPPFYPPFRPPIRPPIFPPIRPPFRPPLGPFP [BAC5, Bactenecin 5, antimicrobial peptide from bovine neutrophils; cluster C4] | – | 1 | 0.915 | 0.915 | 1 | 0.915 | 1 | 0.9167 | 1 | 1 | 0.915 | 1 | 0.915 | 1 | 0.915 | >4.30 | 2.0736 | 4.3 | 1.9 | 2.986 | Relative change in MIC (MIC of the AMP-adpated line / MIC of the ancestral strain) ([1]; AMP-adapted line PEX_1): 1.1; Relative change in MIC (MIC of the AMP-adpated line / MIC of the ancestral strain) ([1]; AMP-adapted line PEX_4): 1.1; Relative change in MIC (MIC of the AMP-adpated line / MIC of the ancestral strain) ([1]; AMP-adapted line PEX_5): 1; Relative change in MIC (MIC of the AMP-adpated line / MIC of the ancestral strain) ([1]; AMP-adapted line PEX_6): 1.1; Relative change in MIC (MIC of the AMP-adpated line / MIC of the ancestral strain) ([1]; AMP-adapted line PEX_7): 1; Relative change in MIC (MIC of the AMP-adpated line / MIC of the ancestral strain) ([1]; AMP-adapted line PROA_2): 1.2; Relative change in MIC (MIC of the AMP-adpated line / MIC of the ancestral strain) ([1]; AMP-adapted line PROA_3): 1; Relative change in MIC (MIC of the AMP-adpated line / MIC of the ancestral strain) ([1]; AMP-adapted line PROA_7): 1.1; Relative change in MIC (MIC of the AMP-adpated line / MIC of the ancestral strain) ([1]; AMP-adapted line PROA_8): 1.1; Relative change in MIC (MIC of the AMP-adpated line / MIC of the ancestral strain) ([1]; AMP-adapted line PROA_9): 1.1; Relative change in MIC (MIC of the AMP-adpated line / MIC of the ancestral strain) ([1]; AMP-adapted line PXB_2): 1.32; Relative change in MIC (MIC of the AMP-adpated line / MIC of the ancestral strain) ([1]; AMP-adapted line PXB_5): 1.1; Relative change in MIC (MIC of the AMP-adpated line / MIC of the ancestral strain) ([1]; AMP-adapted line PXB_6): 1; Relative change in MIC (MIC of the AMP-adpated line / MIC of the ancestral strain) ([1]; AMP-adapted line PXB_8): 1; Relative change in MIC (MIC of the AMP-adpated line / MIC of the ancestral strain) ([1]; AMP-adapted line PXB_10): 0.915; Average relative change in MIC (E. coli BW25113 ΔmlaD; mlaD deletion strain vs control E. coli BW25113, average of 3 replicates): 0.67
4 | GLRKRLRKFRNKIKEKLKKIGQKIQGFVPKLAPRTDY [CAP18, antimicrobial peptide, source rabbit; disrupts cell membrane; cluster C3] | 2.25 | – | – | – | – | – | – | – | – | – | – | – | – | – | – | – | – | – | – | – | –
